Experimental data published in PubChem BioAssay AID1963964 (Molecular Pharmacology Branch, DTP, NCI, 2024).
pIC50: −log10 of the molar value.

Test system: 997726-040-R-J2-PDC tumor spheroids, viability
Experiment: Anticancer human tumor 997726-040-R-J2-PDC patient-derived squamous cell lung carcinoma cell line growth inhibition [PI3K]
Details: spheroids with HUVEC and MSC; for pIC50: curve of first compound; for viability, T/C: stronger effect = lower value
Procedure, shortened: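 Spheroid viability read-out. Co-cultures contained the tumor line plus HUVEC and human MSCs. Each agent was paired with a PI3K inhibitor (inavolisib, alpelisib, duvelisib, copanlisib) across half-log dilutions starting at clinical Cmax, or at 10 microM when Cmax was unknown.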
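Note: spheroids exposed to compounds for seven days before readout.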

- pIC50 (second compound 0.0316 µM): > 7.50
- pIC50 (second compound 0.1 µM): > 7.50
- pIC50 (second compound 0.316 µM): > 7.50
- pIC50 (second compound 1 µM): > 7.50
- pIC50 (second compound 3.16 µM): > 7.50
- pIC50 (second compound 10 µM): > 7.50
SMILES: CC1(C)CCC(Nc2ncc(C(F)(F)F)c(-c3c[nH]c4c(P(C)(C)=O)c(C#N)ccc34)n2)CN1 (configuration not stated) + Cc1nc(NC(=O)N2CCCC2C(N)=O)sc1-c1ccnc(C(C)(C)C(F)(F)F)c1
- viability, T/C (second compound 0.0316 µM, first compound 0.0316 µM): 36.8%
- viability, T/C (second compound 0.0316 µM, first compound 0.1 µM): 27%
- viability, T/C (second compound 0.0316 µM, first compound 0.316 µM): 30.7%
- viability, T/C (second compound 0.0316 µM, first compound 1 µM): 29.5%
- viability, T/C (second compound 0.0316 µM, first compound 3.16 µM): 28.8%
- viability, T/C (second compound 0.0316 µM, first compound 10 µM): 5.15%
- viability, T/C (second compound 0.1 µM, first compound 0.0316 µM): 27.4%
- viability, T/C (second compound 0.1 µM, first compound 0.1 µM): 28.1%
- viability, T/C (second compound 0.1 µM, first compound 0.316 µM): 27.4%
- viability, T/C (second compound 0.1 µM, first compound 1 µM): 29.9%
- viability, T/C (second compound 0.1 µM, first compound 3.16 µM): 29.9%
- viability, T/C (second compound 0.1 µM, first compound 10 µM): 5.28%
- viability, T/C (second compound 0.316 µM, first compound 0.0316 µM): 23.7%
- viability, T/C (second compound 0.316 µM, first compound 0.1 µM): 21.8%
- viability, T/C (second compound 0.316 µM, first compound 0.316 µM): 21.5%
- viability, T/C (second compound 0.316 µM, first compound 1 µM): 24.9%
- viability, T/C (second compound 0.316 µM, first compound 3.16 µM): 21.8%
- viability, T/C (second compound 0.316 µM, first compound 10 µM): 2.81%
- viability, T/C (second compound 1 µM, first compound 0.0316 µM): 16.4%
- viability, T/C (second compound 1 µM, first compound 0.1 µM): 13.5%
- viability, T/C (second compound 1 µM, first compound 0.316 µM): 16%
- viability, T/C (second compound 1 µM, first compound 1 µM): 17.5%
- viability, T/C (second compound 1 µM, first compound 3.16 µM): 18.1%
- viability, T/C (second compound 1 µM, first compound 10 µM): 1.51%
- viability, T/C (second compound 3.16 µM, first compound 0.0316 µM): 14.2%
- viability, T/C (second compound 3.16 µM, first compound 0.1 µM): 11.1%
- viability, T/C (second compound 3.16 µM, first compound 0.316 µM): 11.9%
- viability, T/C (second compound 3.16 µM, first compound 1 µM): 12.9%
- viability, T/C (second compound 3.16 µM, first compound 3.16 µM): 11.5%
- viability, T/C (second compound 3.16 µM, first compound 10 µM): 1.02%
- viability, T/C (second compound 10 µM, first compound 0.0316 µM): 7.35%
- viability, T/C (second compound 10 µM, first compound 0.1 µM): 6.65%
- viability, T/C (second compound 10 µM, first compound 0.316 µM): 6.01%
- viability, T/C (second compound 10 µM, first compound 1 µM): 7.48%
- viability, T/C (second compound 10 µM, first compound 3.16 µM): 6.58%
- viability, T/C (second compound 10 µM, first compound 10 µM): 0.41%
